Data as given in PubChem BioAssay (NCI).
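48-hour exposure; five concentrations; linearly interpolated endpoints. At the GI50, growth is halved. TGI: total growth inhibition.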 Where a SMILES comes first, the peptide text is derived from it. [ ]: non-standard residue; d: D form. The star is where a group is joined. Octanoyl = CCCCCCCC(=O)*; Aib = CC(C)(N)C(=O)O; tBu = CC(C)(C)*

Legend:
Experiment in all cases: inhibition of tumour cell growth, NCI panel, 48 h
[1] = test system: SR leukemia
[2] = test system: NCI-H460 lung
[3] = test system: MALME-3M melanoma
[4] = test system: HOP-62 NSCLC
[5] = test system: SF-295 CNS
[6] = test system: MDA-MB-435
[7] = test system: OVCAR-4 ovarian
[8] = test system: SN12C renal
[9] = test system: HCT-116 colon
[10] = test system: OVCAR-3 ovarian
[11] = test system: NCI-H226 lung

| SMILES | TGI [1] [µM] | TGI [2] [µM] | TGI [3] [µM] | TGI [4] [µM] | TGI [5] [µM] | TGI [6] [µM] | TGI [7] [µM] | TGI [8] [µM] | TGI [9] [µM] | TGI [10] [µM] | TGI [11] [µM] | GI50 [4] [µM] | GI50 [6] [µM] | GI50 [8] [µM] | GI50 [9] [µM] |
| --- | --- | --- | --- | --- | --- | --- | --- | --- | --- | --- | --- | --- | --- | --- | --- |
| CCOC(=O)c1c(-c2ccc(OC)cc2)c(C#N)c(=S)n(C2OC(CO)C(O)C(O)C2O)c1-c1ccccc1 (stereo not drawn) | > 100 | > 100 | > 100 | 80.7 | > 100 | 95.9 | > 100 | > 100 | 85.3 | 73 | – | – | – | – | – |
| CC(=O)OCC1OC(n2c(N)c(C#N)c(-c3ccc(C)cc3)c(C#N)c2=S)C(OC(C)=O)C(OC(C)=O)C1OC(C)=O (stereo not drawn) | – | > 100 | 33 | 47.2 | 73.8 | 79.3 | > 100 | 41 | > 100 | > 100 | 20.1 | – | – | – | – |
| CCCCCCCC(=O)NC(C)(C)C(=O)NC(COC(C)(C)C)C(=O)NC(CC(C)C)C(=O)NC(C)(C)C(=O)NC(COC(C)(C)C)C(=O)NC(COC(C)(C)C)C(=O)NC(CC(C)C)C(=O)NC(C)(C)C(=O)NC(COC(C)(C)C)C(=O)NC(C(=O)NC(CC(C)C)C(=O)OC)C(C)CC (stereo not drawn) (Octanoyl-[Aib]S(tBu)L[Aib]S(tBu)S(tBu)L[Aib]S(tBu)IL-OMe; configuration not given here) | 17.9 | 13.8 | – | > 25 | > 25 | > 25 | > 25 | 24.9 | > 25 | 10.9 | 21.1 | – | – | – | – |
| c1cncc(-c2ncc3cccnc3n2)c1 | – | > 100 | > 100 | > 100 | > 100 | – | > 100 | > 100 | > 100 | > 100 | > 100 | – | – | – | – |
| O=C(OCC1OC(c2nn[nH]n2)C(OC(=O)c2ccccc2)C1OC(=O)c1ccccc1)c1ccccc1 (stereo not drawn) | – | > 100 | > 100 | > 100 | > 100 | > 100 | > 100 | > 100 | > 100 | > 100 | > 100 | – | – | – | – |
| COc1nc2sc3c(c2c(=O)n1CCCSSCCCn1c(OC)nc2sc4c(c2c1=O)CCCC4)CCCC3 | – | – | > 100 | > 100 | > 100 | > 100 | > 100 | > 100 | > 100 | – | > 100 | – | – | – | – |
| O=C(NC1=NC2C=CC([N+](=O)[O-])=CC2S1)C(=O)Nn1c(=S)[nH]c2ccccc2c1=O (stereo not drawn) | – | > 100 | > 100 | > 100 | > 100 | > 100 | > 100 | > 100 | > 100 | > 100 | > 100 | – | – | – | – |
| O=C(NCCO)Nc1c(C(F)(F)F)cc(-c2ccccc2)[nH]c1=O | – | > 100 | – | > 100 | > 100 | > 100 | > 100 | > 100 | > 100 | > 100 | > 100 | – | – | – | – |
| CN(C)c1nc(NN)c2c(-c3ccccc3)c(-c3ccccc3)oc2n1 | > 100 | – | – | – | > 100 | > 100 | > 100 | > 100 | > 100 | – | > 100 | – | – | – | – |
| O=c1[nH]nc(Cc2ccc(Cl)cc2)n1/N=C\c1ccc(/C=N/n2c(Cc3ccc(Cl)cc3)n[nH]c2=O)cc1 | – | > 100 | > 100 | 57.5 | > 100 | > 100 | > 100 | > 100 | > 100 | > 100 | > 100 | – | – | – | – |
| COc1cc([C@@H]2c3[nH]c4ccccc4c3C(Nc3ccc([N+](=O)[O-])cc3)[C@H]3COC(=O)N23)cc(OC)c1O (stereo partly drawn) | – | 1.44 | 1.31 | 0.302 | 1.02 | 2.45 | 5.91 | 3.76 | 1.42 | 1.98 | 0.532 | – | – | – | – |
| S=C(S)N1CCN(c2ccc(Cl)c(Cl)c2)CC1 | – | – | 44.2 | > 100 | > 100 | 37.4 | – | > 100 | 29.5 | 50 | – | – | – | – | – |
| Cc1cccc(-c2cc(=S)c3cc(N4CCCC4)ccc3[nH]2)c1 | – | – | – | > 100 | > 100 | > 100 | > 100 | > 100 | > 100 | > 100 | > 100 | – | – | – | – |
| CN(CCCCN(C)CCc1ccc(Cl)c(Cl)c1)CCCCN1CCCC1 | – | 2.98 | 3.46 | 3.74 | 3.54 | 0.904 | 3.66 | 4.01 | 2.93 | 4.34 | 4.01 | – | – | – | – |
| CC(=O)N[C@H]1CCCC[C@@H]1OC(C)=O | – | > 100 | > 100 | > 100 | > 100 | > 100 | > 100 | > 100 | > 100 | > 100 | > 100 | – | – | – | – |
| COc1ccc2oc(C(=O)N3CC(CCl)c4ccc([N+](=O)[O-])cc43)cc2c1 (stereo not drawn) | > 100 | > 100 | – | 31.5 | 69.6 | > 100 | > 100 | – | > 100 | – | 36.8 | – | – | – | – |

| SMILES | TGI [1] [µM] | TGI [2] [µM] | TGI [3] [µM] | TGI [4] [µM] | TGI [5] [µM] | TGI [6] [µM] | TGI [7] [µM] | TGI [8] [µM] | TGI [9] [µM] | TGI [10] [µM] | TGI [11] [µM] | GI50 [4] [µM] | GI50 [6] [µM] | GI50 [8] [µM] | GI50 [9] [µM] |
| --- | --- | --- | --- | --- | --- | --- | --- | --- | --- | --- | --- | --- | --- | --- | --- |
| O=C(O)c1ccc(C(c2c(O)c3ccccc3oc2=O)c2c(O)c3ccccc3oc2=O)cc1 | > 100 | > 100 | – | > 100 | > 100 | > 100 | – | > 100 | > 100 | > 100 | – | – | – | – | – |
| Cc1[nH]c(=O)nc(NCCNCCO)c1C(=O)Nc1c2ccccc2nc2ccccc12 | – | – | > 100 | > 100 | > 100 | > 100 | > 100 | > 100 | > 100 | > 100 | > 100 | – | – | – | – |
| COc1ccc(/C=C/C(=O)N[C@@H]2C(=O)N3[C@@H]2SC(C)(C)[C@@H]3C(=O)O)cc1 | > 100 | > 100 | – | > 100 | > 100 | > 100 | > 100 | > 100 | > 100 | > 100 | > 100 | – | – | – | – |
| N#CCCN(CCC#N)c1ccc(/C=C2\N=C(c3ccccc3)N(c3ccccn3)C2=O)cc1 | – | > 100 | > 100 | > 100 | > 100 | > 100 | > 100 | > 100 | > 100 | > 100 | > 100 | – | – | – | – |
| COc1cccc(N2C(=O)CSC2c2cc(OC)c(OC)c(OC)c2)c1 (stereo not drawn) | > 100 | > 100 | – | – | 97.8 | 17.6 | > 100 | > 100 | > 100 | 66.2 | 87.2 | – | – | – | – |
| CC(=O)Oc1cc2c(cc1OC(C)=O)[C@H]1CC[C@]3(C)[C@@H](OC(C)=O)CC[C@H]3[C@@H]1CC2 | 5.77 | 20.6 | – | 26.7 | 24.3 | 9.65 | 19.7 | 20.4 | 18.5 | 7.88 | – | 4.81 | 0.316 | 5.06 | 5.08 |
| O=C(/C=C/c1ccco1)CC(=O)/C=C/c1ccco1 | 17.4 | 22.2 | 20.9 | 17.3 | – | 22.1 | > 31.6 | 17.5 | 17.4 | – | – | – | – | – | – |
| CN(C)c1ccc(/C=C(\NC(=O)c2ccccc2)C(=O)NC(CCC(=O)O)C(=O)O)cc1 (stereo not drawn) | – | > 100 | > 100 | > 100 | > 100 | > 100 | > 100 | > 100 | > 100 | > 100 | > 100 | – | – | – | – |
| N/N=C1/CCCc2nonc21 | > 100 | > 100 | > 100 | > 100 | > 100 | > 100 | > 100 | > 100 | > 100 | > 100 | – | – | – | – | – |
| CC(NC(=O)OC(C)(C)C)C(=O)C(N)=O (stereo not drawn) | > 100 | > 100 | – | > 100 | – | > 100 | – | > 100 | > 100 | – | > 100 | – | – | – | – |
| Cc1n[nH]c(=O)n1/N=C/c1c[nH]c2ccccc12 | > 100 | > 100 | > 100 | > 100 | > 100 | > 100 | > 100 | > 100 | > 100 | > 100 | – | – | – | – | – |
| CC(CO)C1=CC(C#CCOCc2ccccc2)N(C(=O)Oc2ccccc2)c2ccccc21 (stereo not drawn) | > 100 | 91.8 | – | > 100 | 71.9 | 47.9 | 20.7 | 68.6 | > 100 | 88.2 | > 100 | – | – | – | – |
| CCOC(=O)C1=c2[nH]c3cccc4cccc(c43)n2C=C(C(C)=O)C1CC(C)=O (stereo not drawn) | > 100 | > 100 | – | > 100 | > 100 | > 100 | > 100 | > 100 | > 100 | > 100 | – | – | – | – | – |
| c1ccc(/N=N/Nc2ccc(-c3nc4ccccc4[nH]3)cc2)nc1 | – | 31.6 | 29.2 | 30.2 | 35.9 | 45.7 | 35.8 | 35.8 | 19.7 | 28.2 | 65.4 | – | – | – | – |
| CC(C)NCC(O)c1ccc(OCc2ccccc2)c(OCc2ccccc2)c1-c1ccccc1 (stereo not drawn) | – | 3.49 | 3.16 | 3.25 | 3.55 | – | 3.79 | 3.13 | 3.17 | 3.22 | 4.28 | – | – | – | – |
